Common to all, as to type: cell-based
In one assay the test system is Escherichia coli. Nature of the assay: Agar plate disc-diffusion antibacterial test, Escherichia coli. As to conditions: nutrient agar, 37° C., 48 h, DMSO control zone subtracted. As for the experimental part:
(§1) The agar plate disc-diffusion method was applied. Sterilized filter papers (6 mm in diameter) were wetted with 10 μL of a solution of 2-ethoxy[4,3:6,2-terpyridine]-3-carbonitrile (4) or 2-methoxy[4,3:6,2-terpyridine]-3-carbonitrile (5) to be tested, containing […], and the discs were allowed to air dry. The discs were then placed onto the surface of agar plates (nutrient agar for bacteria and Sabouraud's dextrose agar for fungi) seeded with the test organism. Each plate contained 15 mL of the agar medium, previously seeded with 0.2 mL of the broth culture of each organism pre-grown for 18 hours. The plates were incubated at 37° C. for 48 h, and 72 h for fungi. The inhibition zones were measured in mm. Discs impregnated with DMSO were used as a control, and its inhibition zone was subtracted from the tested compound actual inhibition zone.
(§2) The results of the antimicrobial testing can be observed in Tables 1 and 2, below, using ciprofloxacin as a reference.

Another assay relates to Aspergillus flavus. Nature of the assay: Agar plate disc-diffusion antifungal test, Aspergillus flavus. As to conditions: Sabouraud's dextrose agar, 37° C., 72 h, DMSO control zone subtracted. As for the experimental part: as §1, §2
A further assay has as its system Bacillus cereus. Nature of the assay: Agar plate disc-diffusion antibacterial test, Bacillus cereus. Particulars: nutrient agar, 37° C., 48 h, DMSO control zone subtracted. How it is done:
as §1, §2

For the next assay, the system named is Pseudomonas aeruginosa. Nature of the assay: Agar plate disc-diffusion antibacterial test, Pseudomonas aeruginosa. As to conditions: nutrient agar, 37° C., 48 h, DMSO control zone subtracted. How it is done:
as §1, §2

Assay [1] relates to Chrysosporium keratinophilum. Nature of the assay: Agar plate disc-diffusion antifungal test, Chrysosporium keratinophilum. Particulars: Sabouraud's dextrose agar, 37° C., 72 h, DMSO control zone subtracted. As for the experimental part: as §1, §2
A further assay concerns Staphylococcus aureus. Nature of the assay: Agar plate disc-diffusion antibacterial test, Staphylococcus aureus. As to conditions: nutrient agar, 37° C., 48 h, DMSO control zone subtracted. As for the experimental part:
as §1, §2

Setting [2] is: A = concentration of comp. = 10,000 μL.
Where [3] appears, read: B = concentration of comp. = 30.000 μL.
Setting [4] is: C = concentration of comp. = 50,000 μL.

Structures are written as SMILES.

Take `O=C(O)c1cn(C2CC2)c2cc(N3CCNCC3)c(F)cc2c1=O` [Cip., ciprofloxacin, reference compound]: the inhibition zone in the assay with Escherichia coli (setting [2]) is recorded as 30 mm; with Escherichia coli (setting [3]) it was 39 mm; in the assay with Escherichia coli (setting [4]) it was 60 mm; in the assay on Aspergillus flavus (setting [2]) it was 29 mm; in the assay with Aspergillus flavus (setting [3]) it was 30 mm; in the assay on Aspergillus flavus (setting [4]) it was 42 mm. Moreover, the inhibition zone in the assay on Bacillus cereus (setting [2]) was determined as 29 mm; in the assay on Bacillus cereus (setting [3]), 30 mm; in the assay with Bacillus cereus (setting [4]), 42 mm; in the assay on Pseudomonas aeruginosa (setting [2]), 29 mm; with Pseudomonas aeruginosa (setting [3]), 30 mm; with Pseudomonas aeruginosa (setting [4]) it was 53 mm. Besides, the inhibition zone in assay [1] (setting [2]) stood at 29 mm; in assay [1] (setting [3]), 30 mm; in assay [1] (setting [4]) it was 53 mm; in the assay with Staphylococcus aureus (setting [2]), 43 mm; in the assay with Staphylococcus aureus (setting [3]), 44 mm; in the assay with Staphylococcus aureus (setting [4]), 53 mm.

For the compound `CCOc1nc(-c2ccccn2)cc(-c2cccnc2)c1C#N` [Compound 4, 2-ethoxy[4,3:6,2-terpyridine]-3-carbonitrile], the inhibition zone is 28 mm in the assay on Escherichia coli (setting [2]); 37 mm with Escherichia coli (setting [3]); 51 mm in the assay with Escherichia coli (setting [4]); 20 mm in the assay with Aspergillus flavus (setting [2]); 23 mm in the assay with Aspergillus flavus (setting [3]); 35 mm in the assay with Aspergillus flavus (setting [4]). The inhibition zone is recorded as 25 mm in the assay with Bacillus cereus (setting [2]); 27 mm in the assay on Bacillus cereus (setting [3]); 40 mm in the assay with Bacillus cereus (setting [4]); 24 mm in the assay with Pseudomonas aeruginosa (setting [2]); 29 mm with Pseudomonas aeruginosa (setting [3]); 46 mm in the assay on Pseudomonas aeruginosa (setting [4]). Also, the inhibition zone in assay [1] (setting [2]) was 22 mm; in assay [1] (setting [3]), 24 mm; in assay [1] (setting [4]) it was 35 mm; in the assay with Staphylococcus aureus (setting [2]), 16 mm; in the assay with Staphylococcus aureus (setting [3]), 20 mm; in the assay on Staphylococcus aureus (setting [4]), 28 mm.

With `COc1nc(-c2ccccn2)cc(-c2cccnc2)c1C#N` [Compound 5, 2-methoxy[4,3:6,2-terpyridine]-3-carbonitrile], the inhibition zone turned out to be 29 mm in the assay on Escherichia coli (setting [2]); 38 mm with Escherichia coli (setting [3]); 54 mm in the assay with Escherichia coli (setting [4]); 21 mm with Aspergillus flavus (setting [2]); 26 mm in the assay with Aspergillus flavus (setting [3]); 31 mm in the assay on Aspergillus flavus (setting [4]). Moreover, the inhibition zone in the assay with Bacillus cereus (setting [2]) came to 26 mm; with Bacillus cereus (setting [3]), 28 mm; in the assay on Bacillus cereus (setting [4]), 41 mm; with Pseudomonas aeruginosa (setting [2]), 25 mm; in the assay on Pseudomonas aeruginosa (setting [3]) it was 29 mm; with Pseudomonas aeruginosa (setting [4]), 47 mm. For the same compound, the inhibition zone is listed as 25 mm in assay [1] (setting [2]); 27 mm in assay [1] (setting [3]); 47 mm in assay [1] (setting [4]); 18 mm with Staphylococcus aureus (setting [2]); 22 mm with Staphylococcus aureus (setting [3]); 31 mm in the assay on Staphylococcus aureus (setting [4]).
